US20230181496A1, “USE OF NOREPINEPHRINE OR BETA-ADRENERGIC RECEPTOR INHIBITOR IN PREPARATION OF MEDICAMENT FOR NERVE INJURY REPAIR IN DIABETES” (Qingdao Eye Hospital of Shandong First Medical University …, priority 2021, published 2023)
Entries after “also recorded” stand apart in the source; their conditions may differ.

Tests used:
[1] = test system: diabetic mice; test: Corneal nerve regeneration (βIII-tubulin staining, confocal microscope); assay type: in vivo
From the text: Animals were STZ-induced type I diabetic mice (constructedas describedin the prior art: Lingling, Yang, Guohu, Di, Xia, & Qi, et al. (2014). Substance P promotes diabetic corneal epithelial wound healing through molecular mechanisms mediated via the neurokinin-1 receptor. Diabetes, 63(12), 4262-4274.) and their normal controls. Laboratory mice had no corneal defect, neovascularization, or conjunctival injury.
Cornea of diabetic mice and their control mice were subjected to βIII-tubulin staining (as described in the following reference: Wang X, Li W, Zhou Q, et al. MANF Promotes Diabetic Corneal Epithelial Wound Healing and Nerve Regeneration by Attenuating Hyperglycemia-Induced Endoplasmic Reticulum Stress. 2020.), and nerve regeneration was observed under a confocal microscope.
The cornea of diabetic mice and their control mice were stained with βIII-tubulin, and nerve regeneration was observed under a confocal microscope.

[2] = test system: diabetic mice; test: Expression of NGF and GDNF in corneal epithelium (mRNA detection and immunofluorescence staining); assay type: in vivo; conditions: diabetic mice dropped in eyes with β2-adrenergic receptor antagonist
From the text: mRNA was extracted from the corneal epithelia of the diabetic mice and the diabetic mice treated with β2-adrenergic receptor antagonist; meanwhile, expression levels of NGF and GDNF in epithelial cells were detected according to the example, and expression levels of NGF and GDNF in epithelia of the diabetic mice and the diabetic mice dropped in eyes with β2-adrenergic receptor antagonist were detected by immunofluorescence staining.

[3] = test system: Trigeminal ganglion neurons; test: Growth of trigeminal ganglion neurons cultured with TKE2 culture supernatants (βIII-Tubulin staining, Neuron J length); assay type: cell-based, mice; conditions: supernatant added to neurons for 24 h
Protocol: Trigeminal ganglion neurons isolated from normal mice were mixed with a mixture of 40 U/mL papain, 3 mg/mL collagenase, and 4.7 mg/mL dispase II, digested and subjected to gradient centrifugation with percoll (upper layer: 12.5% percoll; lower layer 28% percoll), and isolated to obtain neurons (as describedin the prior art: Malin, S. A., Davis, B. M. & Molliver, D. C. Production of dissociated sensory neuron cultures and considerations for their use in studying neuronal function and plasticity. Nat Protoc 2, 152-160 (2007).). The neurons obtained were cultured on a laminin-coated glass slide overnight. TKE2 culture supernatants under different conditions were added to the neurons and cultured for 24 h; after βIII-Tubulin staining, the length of neuron was analyzed and calculated by Neuron J (after the relative length was analyzed by the software, it was calculated with the control as 1.0).

[4] = test system: TKE2 cells; test: Expression of neurotrophic factors NGF and GDNF in TKE2 cells (qPCR and ELISA); assay type: cell-based, mouse; conditions: 24 h
Protocol: TKE2 cells cultured under different conditions were collected for mRNA extraction, and their culture supernatants were collected; after qPCR and ELISA, expression levels of neurotrophic factors NGF and GDNF were obtained, respectively. Herein, primers for the detection of expression of NGF and GDNF by qPCR were as follows: The reaction system was as follows: 2×SYBR: 5 μL; upstream primer: 0.3 μL; downstream primer: 0.3 μL; RNase-free water: 2.4 μL; cDNA: 2 μL; total: 10 μL; The reaction program was as follows: PCR initial denaturation: 95° C. for 2 min; two-step program: 40 cycles of 95° C. for 5 s and 60° C. for 10 s. The ELISA was conducted by ELISA Kit for mouse NGF (USCN Life Science Inc. Wuhan, China) and mouse GDNF(Abcam, ab171178, Shanghai, China).

[5] = test system: diabetic mice; test: Corneal epithelial repair after 2 mm corneal epithelium scraping (sodium fluorescein staining); assay type: in vivo
[6] = test system: diabetic mice; test: Corneal sensitivity after corneal epithelium scraping (Cochet-Bonnet aesthesiometer); assay type: in vivo

## NCCc1cc(O)c(O)cc1O [6-OHDA, 6-hydroxydopamine]
[1]; Example 8: 100 mg/kg intraperitoneally, four consecutive days, 100 mg/kg
  corneal nerve regeneration: promoting effect; also recorded: effectively promoted the corneal nerve regeneration

## Cc1ccc(OCC(O)C(C)NC(C)C)c2c1CCC2 (centres unmarked) [ICI 118,551]
[2]
  expression of NGF and GDNF in corneal epithelium: significantly upregulated the expression of NGF and GDNF
[3]; TKE2 cells treated with 10 μM NE + 50 μM antagonist for 24 h
  reversal of nerve growth inhibition caused by elevated norepinephrine: better reverse nerve growth inhibition
[4]; 10 μM NE + 50 μM antagonist
  reversal of downregulated expression of NGF and GDNF caused by NE: reverse the downregulated expression of NGF and GDNF
[1]; diabetic mice treated with β2-adrenergic receptor antagonist eye drops
  corneal nerve regeneration: promoting effect; also recorded: effectively promote corneal nerve regeneration
[5]; 10-100 μM eye drops, 5 μL/eye, 4 times/day, two consecutive days, 0, 24, 36, 48 h after modeling
  diabetic corneal epithelial repair: significantly promote the diabetic corneal epithelial repair
[5]; Example 8: 100 mg/kg intraperitoneally, four consecutive days, scraped at 7th day, 0, 36, 48 h after modeling
  diabetic corneal epithelial repair: significantly promote the diabetic corneal epithelial repair
[6]; 10-100 μM eye drops, 5 μL/eye, 4 times/day, two consecutive days
  corneal sensitivity: significantly promote
[6]; Example 8: 100 mg/kg intraperitoneally, four consecutive days, scraped at 7th day
  corneal sensitivity: recover the sensitivity

## NC[C@H](O)c1ccc(O)c(O)c1 [norepinephrine]
[3]; TKE2 cells treated with 10 μM NE for 24 h
  nerve growth (length of neuron): nerve growth inhibition
[4]; 10 μM NE
  expression of NGF and GDNF: downregulated expression of NGF and GDNF
